According to publication PMC8370201, “Amaryllidaceae Alkaloid Cherylline Inhibits the Replication of Dengue and Zika Viruses” (Antimicrobial Agents and Chemotherapy, 2021):
Entries after “also recorded” stand apart in the source; their conditions may differ. Read-outs that look alike come from different tables or passages of the source.

How the values were obtained:
[1] = test system: Huh7 cells; assay: XTT cytotoxicity assay in Huh7 cells; format: cell-based, human; settings: 0.4 to 400 μM, 72 hours
Procedure: Cytotoxicity properties were titrated by metabolism monitoring using the XTT [2,3-bis-(2-methoxy-4-nitro-5-sulfophenyl)-2H-tetrazolium-5-carboxanilide] assay kit (Roche, Millipore Sigma), as described before ([24]). Briefly, Huh7 cells were seeded at 10 × 10^3 cells per well in 96-well plates. […] After 72 h of incubation, medium was replaced by phenol-free DMEM (Wisent) containing 0.3 mg/ml XTT, and cells were incubated for 4 h. Absorbance was measured at 450nm using a microplate spectrophotometer (Synergy H1, Biotek). Treatment conditions with 0.5% DMSO were used as the reference control. The percentage of cell viability was calculated at each concentration.

[2] = Cell viability (ATP, Cell-Titer GLO) in Huh7.5 cells; format: cell-based; settings: human
Procedure: Where indicated for Huh7.5 and Vero E6 cells and PBMCs, cell viability was measured by monitoring of cellular ATP levels using the Cell-Titer GLO assay kit (Promega). Briefly, 10× 10^3 to 20 × 10^3 cells in 50 to 100 μl were seeded in 48-well or 96-well plates and cultured overnight. AAs were added at the designated concentrations for 24 or 48 h, as specified in the text. Then, 50 to 100 μl of room temperature Cell-Titer GLO reagent was added in each well to room temperature-equilibrated cell plates. Plates were rocked for 2 min and rested for 10 min, and the luminescence signal was measured using a microplate spectrophotometer (Biotek Synergy H1 or Tecan Spark multimode microplate reader). Viability was expressed as a fold change calculated using the value of DMSO-treated cells at each concentration; for each AA and CC50, values were determined.

[3] = test system: DENV2 16881s; assay: Plaque assay, infectious titers of WT DENV2 16881s from Huh7.5 cells; format: cell-based, dengue virus (DENV); settings: treated 2 hpi, supernatant 48 h later; for production of DENV infectious particles (words): AAs 50 μM
Procedure: Huh7.5 cells were infected with DENV 16881s, ZIKV H/PF/2013, or ZIKV MR766 (MOI, 0.1) or left uninfected. […] Supernatants were harvested 2 days pi, and PFU were determined by plaque assay on VeroE6 cells. Cells incubated overnight (2 × 10^5 cells/well in 24-well plates) were infected with 10-fold serially diluted virus-containing supernatants for 2 h at 37°C. Inoculum was then replaced with MEM (Life Technologies) containing 1.5% carboxymethylcellulose (Millipore-Sigma). ZIKV- and DENV-infected cells were incubated for 5 and 7 days, respectively. One volume of 10% formaldehyde was added to the cells for fixation. Two hours later, cells were washed with tap water and stained with a 1% crystal violet/10% ethanol solution for 30 min. Wells were rinsed with tap water, and the number of plaques were counted to calculate virus titers.

[4] = test system: ZIKV H/PF/2013; assay: Plaque assay, infectious titers of WT ZIKV H/PF/2013 from Huh7.5 cells; format: cell-based, Zika virus (ZIKV); settings: treated 2 hpi, supernatant 48 h later
[5] = test system: ZIKV MR766; assay: Plaque assay, infectious titers of WT ZIKV MR766 from Huh7.5 cells; format: cell-based, Zika virus (ZIKV); settings: treated 2 hpi, supernatant 48 h later
[6] = test system: DENVGFP; assay: Time-of-drug-addition and -removal assays, DENVGFP in Huh7 cells; format: cell-based, dengue virus (DENV); settings: for infection after removal of compound 2 hpi vs continuous treatment: Huh7, treated 2 h prior to infection, removed 2 hpi, microscopy; for time of drug addition: effect on DENVGFP-infected Huh7 cells 72 hpi / time of drug removal: inhibition of DENVGFP replication: cherylline 50 μM
Procedure: For the time-of-drug-addition assay, at the time of infection, AAs were added in wells corresponding to 0 h. At 2 hpi, viral inoculum was removed from every well, and AAs were added back to wells corresponding to 0 h and 2 h. At 4, 7, 12, and 24 hpi, AAs or DMSO diluted in DMEM was added to the appropriate wells. After 72 h, cells were trypsinized and fixed in 4% formaldehyde to measure the percentage of infected cells on an FC500 MPL cytometer. Alternatively, pictures of Hoechst 33342-stained cells were acquired on an Axio Observer microscope. All assays were performed in triplicate.
At 2 hpi, plates were washed, and medium was replaced to remove remaining viruses in the supernatant. AAs were added back to all wells, except the ones corresponding to 2 h of treatment, in which fresh medium exclusive of any AA was added. Accordingly, after 4, 7, and 12 h of infection, the supernatant was replaced by fresh medium in corresponding wells. After 72 h of incubation, results were acquired as for the time-of-drug-addition assay. All assays were performed in triplicate.

[7] = test system: DENVR2A; settings: CC50/EC50, Huh7.5
[8] = test system: ZIKVR2A; settings: for SI ZIKVR2A (therapeutic selectivity index): CC50/EC50, Huh7.5
[9] = test system: DENVR2A; assay: microbe, parasite or virus in culture; settings: Dengue virus, Huh7.5, read-out: EC50 (μM) for DENVR2A
[10] = test system: ZIKVR2A; assay: microbe, parasite or virus in culture; settings: Zika virus, Huh7.5, read-out: EC50 (μM) for ZIKVR2A, Huh7.5 cells, luciferase at 48 hpi
[11] = test system: DENVGFP; assay: DENVGFP reporter virus infection of Huh7 cells (flow cytometry / microscopy); settings: for anti-DENV activity in screening (GFP microscopy, words): Huh7, treated 2 h before DENVGFP MOI 0.15, 72 hpi, at the chosen concentration; for EC50: Dengue virus, Huh-7, read-out: EC50, DENVGFP infection; for DENVGFP infected cells by microscopy: MOI 0.15, 72 hpi
[12] = test system: VSV-G pseudotyped HIV-1GFP; format: cell-based
[13] = test system: interferon-sensitive response element (ISRE) transcription; assay: Type I IFN activation assay (ISRE-luciferase) in LL171 cells; format: cell-based, Murine; settings: 50 μM, 24 h
Procedure: In vitro type I IFN activation was measured in LL171 cells using the luciferase assay system kit (Promega). Briefly, 200 μl LL171 reporter cells (L929 cells expressing an IFN stimulated response element [ISRE]-luciferase) were seeded at 1.5 × 10^4 cells/well in 96-well plates and cultured for 16 h. Medium was replaced with DMEM containing cherylline for 24 h. Supernatant was removed, cells were rinsed with PBS, and lysis buffer was added (luciferase assay reagent; Promega). Then, cells were scraped and transferred into opaque 96-well plates. LAR (luciferase assay reagent; Promega) was added to each well, and luminescence was measured at 480 nm using a microplate spectrophotometer (Synergy H1). 5,6-dimethylxanthenone-4-acetic acid (DMXAA, 20 μg/ml) was used as a positive control. All assays were performed in triplicate.

[14] = test system: DENVGFP and DENV2 16881s; assay: Viral RNA levels by RT-qPCR, DENV; format: cell-based, dengue virus (DENV); settings: 12 and 24 h; DENVGFP MOI 0.5 Huh7 25 μM; DENV2 16881s MOI 2 Huh7.5 50 μM
[15] = test system: ZIKV H/PF/2013; assay: Viral RNA levels by RT-qPCR, ZIKV; format: cell-based, Zika virus (ZIKV); settings: 12 and 24 h; MOI 2, Huh7.5, 50 μM
[16] = test system: DENVGFP; assay: DENVGFP infection of PBMCs with antibody-dependent enhancement (flow cytometry); settings: 30 μM

## O=c1c2cc3c(cc2c2cccc4ccn1c42)OCO3 [Hippadine, hippadine]
[1]
  cytotoxic activity of AAs: cytotoxic
[2]; Huh7.5 cells, Huh7.5, ATP, 48 h posttreatment, read-out: CC50
  CC50 at 48 h: 176 µM
[3]
  production of DENV infectious particles (words): little effect
[3]; listed as hippadine
  production of DENV infectious particles (words): no effects on DENV production
[4]; AAs 50 μM
  decrease in ZIKV H/PF/2013 viral titer: 3 fold
  decrease in ZIKV H/PF/2013 viral titers: 70%
[5]
  production of ZIKV MR766 infectious particles (words): little effect
[6]
  infection after removal of compound 2 hpi vs continuous treatment: restored virus replication completely
[7]
  SI DENVR2A (therapeutic selectivity index): 2.38
[8]
  SI ZIKVR2A (therapeutic selectivity index): 1.54
[8]; Huh7.5 cells
  ZIKVR2A replication: did not significantly impact ZIKVR2A replication
[9]
  EC50: 73.8 µM
[10]
  EC50: 114 µM
[11]
  anti-DENV activity in screening (GFP microscopy, words): moderate

## COc1cc2c(cc1OC)[C@@H](c1ccc(O)cc1)CN(C)C2 [Gigantelline, gigantelline]
[11]
  anti-DENV activity in screening (GFP microscopy, words): weak

## COc1cc2c(cc1O)CN(C)C[C@H]2c1ccc(O)cc1 [Cherylline, cherylline]
[1]
  cytotoxic activity of AAs: cytotoxic
[2]
  CC50 at 48 h: > 250 µM
[3]; 50 μM
  decrease in DENV 16881s viral titers: 17 fold
[4]; AAs 50 μM
  decrease in ZIKV H/PF/2013 viral titer: 100 fold
[5]; AAs 50 μM
  decrease in WT ZIKV MR766 replication: 8 fold
  decrease in ZIKV MR766 viral titer: 88%
[12]
  HIV-1 infection: no effect; also recorded: did not affect HIV-1 infection; also recorded: did not detect any antiretroviral activity
[13]
  type I interferon (IFN) induction, ISRE transcription: did not trigger a significant amount of type I interferon
[6]
  infection after removal of compound 2 hpi vs continuous treatment: restored virus replication completely
[6]; added at 24 hpi, NITD008 10 μM
  time of drug addition: effect on DENVGFP-infected Huh7 cells 72 hpi: lost one-third of its inhibitory potential
[6]; added at 12 hpi
  time of drug addition: effect on DENVGFP-infected Huh7 cells 72 hpi: some cherylline antiviral activity was lost
[6]; added between 0 and 7 hpi
  time of drug addition: effect on DENVGFP-infected Huh7 cells 72 hpi: entirely blocked viral replication
[6]; present for the first 12 h
  time of drug removal: inhibition of DENVGFP replication: successfully impaired DENV replication
[6]; removed at 2, 4, or 7 hpi
  time of drug removal: inhibition of DENVGFP replication: inhibition of viral replication was lost
[14]
  viral RNA levels (RT-qPCR): decrease in viral RNA levels
[15]
  viral RNA levels (RT-qPCR): decrease in viral RNA levels
[7]
  SI DENVR2A (therapeutic selectivity index): >28
[8]
  SI ZIKVR2A (therapeutic selectivity index): >12.3
[8]; read-out: EC50 (μM) for ZIKVR2A, Huh7.5 cells, luciferase at 48 hpi
  EC50: 20.3 µM
[9]
  EC50: 8.8 µM
[10]
  EC50: 20.3 µM
[11]
  EC50: 8 µM
[11]; Huh7, 0.4 μM
  DENVGFP infected cells by microscopy: no apparent difference with the control
[11]; Huh7, 2 μM
  DENVGFP infected cells by microscopy: most of the cells were infected
[11]; Huh7, 10 μM
  DENVGFP infected cells by microscopy: Several foci of infected cells became visible
[11]; Huh7, 50 μM
  DENVGFP infected cells by microscopy: no detectable infection; also recorded: no infected cells were observed
[16]; MOI 2, 72 hpi
  median GFP+ cells: 0.1%
[16]; MOI 2, 72 h
  decrease in the percentage of GFP+ cells: 5.3 fold

## O[C@H]1C=C[C@@]23CCN(Cc4cc5c(cc42)OCO5)[C@@H]3C1 [Crinine, crinine]
[6]
  infection after removal of compound 2 hpi vs continuous treatment: restored virus replication completely

## CN1CC[C@@]23C=C[C@H](O)C[C@@H]2Oc2c(O)ccc(c23)C1 [Sanguinine, sanguinine]
[6]
  infection after removal of compound 2 hpi vs continuous treatment: restored virus replication completely
[11]
  anti-DENV activity in screening (GFP microscopy, words): very weak

## NC(=O)c1ncn([C@@H]2O[C@H](CO)[C@@H](O)[C@H]2O)n1 [ribavirin, reference compound]
[11]
  EC50: 100 µM

## OC1CC2N3CCC2(c2cc4c(cc2C3)OCO4)C2OC12 (centres unmarked) [Flexinine, flexinine]
[2]
  CC50 at 48 h: > 250 µM
[3]
  production of DENV infectious particles (words): no effects on DENV production; also recorded: little effect
[4]
  production of ZIKV H/PF/2013 infectious particles (words): marginal effects on ZIKV production; also recorded: little effect
[5]
  production of ZIKV MR766 infectious particles (words): marginal effects on ZIKV production; also recorded: little effect
[6]
  infection after removal of compound 2 hpi vs continuous treatment: restored virus replication completely
[7]
  SI DENVR2A (therapeutic selectivity index): >3.9
[8]
  SI ZIKVR2A (therapeutic selectivity index): >1.15
[8]; Huh7.5 cells
  ZIKVR2A replication: did not significantly impact ZIKVR2A replication
[9]
  EC50: 63.4 µM
[10]
  EC50: 216 µM
[11]
  anti-DENV activity in screening (GFP microscopy, words): moderate

## COc1ccc([C@@H]2CN(C)Cc3cc(O)c(OC)cc32)cc1O [Gigantellinine, gigantellinine]
[2]
  CC50 at 48 h: > 250 µM
[3]
  production of DENV infectious particles (words): little effect
[3]; listed as gigantellinine
  production of DENV infectious particles (words): no effects on DENV production
[4]
  production of ZIKV H/PF/2013 infectious particles (words): little effect
[4]; listed as gigantellinine
  production of ZIKV H/PF/2013 infectious particles (words): marginal effects on ZIKV production
[5]
  production of ZIKV MR766 infectious particles (words): little effect
[5]; listed as gigantellinine
  production of ZIKV MR766 infectious particles (words): marginal effects on ZIKV production
[6]
  infection after removal of compound 2 hpi vs continuous treatment: restored virus replication completely
[7]
  SI DENVR2A (therapeutic selectivity index): >2.3
[8]; Huh7.5 cells
  ZIKVR2A replication: did not significantly impact ZIKVR2A replication
[9]
  EC50: 105 µM
[10]
  EC50: > 250 µM
[11]
  anti-DENV activity in screening (GFP microscopy, words): moderate
